# Target: T1, human FSH receptor (Homo sapiens, UniProt P23945)
# T1 construct: expressed in transfected cells; host or cells: CHO cells (hFSHR clone 16)
# T1 sequence (P23945 18-695): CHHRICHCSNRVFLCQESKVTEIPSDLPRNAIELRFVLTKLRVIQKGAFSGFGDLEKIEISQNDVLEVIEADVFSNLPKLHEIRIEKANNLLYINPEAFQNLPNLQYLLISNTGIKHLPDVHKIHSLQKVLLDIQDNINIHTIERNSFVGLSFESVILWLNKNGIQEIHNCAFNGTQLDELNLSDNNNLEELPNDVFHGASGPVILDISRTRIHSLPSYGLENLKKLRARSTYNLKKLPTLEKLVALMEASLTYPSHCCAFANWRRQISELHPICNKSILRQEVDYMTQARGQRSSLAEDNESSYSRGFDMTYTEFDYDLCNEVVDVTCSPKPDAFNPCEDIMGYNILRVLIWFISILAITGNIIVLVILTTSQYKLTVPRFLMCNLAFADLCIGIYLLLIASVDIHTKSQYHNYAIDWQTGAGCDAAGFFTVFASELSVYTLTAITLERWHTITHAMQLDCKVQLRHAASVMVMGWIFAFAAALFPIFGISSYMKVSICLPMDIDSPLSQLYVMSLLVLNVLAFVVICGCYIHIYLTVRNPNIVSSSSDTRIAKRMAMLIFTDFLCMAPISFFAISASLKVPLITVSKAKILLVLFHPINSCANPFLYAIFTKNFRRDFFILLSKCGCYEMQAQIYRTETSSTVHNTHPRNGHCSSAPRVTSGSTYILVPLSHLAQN
# Experiment: HTRF assay for measuring cAMP in cells (FSH-antagonistic effect)
# Type: cell-based
# Conditions: hFSHR clone 16 cells (CHO cells stably transfected with the human FSH receptor), in the presence of 1e-9 mol/l hFSH
# Experimental: HTRF Assay for Measuring cAMP in Cells
# The method is based on a competitive immunoassay between native cAMP, which has been produced by the cells, and cAMP which is labelled with XL665. The tracer binding was visualized by a monoclonal antibody, anti-cAMP labelled with cryptate [HTRF=homogeneous time-resolved fluorescence].
# The specific signal is inversely proportional to the cAMP concentration of the samples employed.
# The 665 nm/620 nm fluorescence ratio was evaluated.
# The following material was used: 96-well plates for the tissue culture, 96-well plates with black edge and black base (e.g. Fluotrac 600 from Greiner), 96-well plates for the substance dilutions of polypropylene and cAMP Femtomolar (4000 wells Kit, CIS Bio International #62AM1PEC).
# The following reagents were used: BSA (bovine serum albumin) Fraction V protease-free, IBMX (3-isobutyl-1-methylxanthine), hFSH (human follicle stimulating hormone), Triton X-100 analytical grade, potassium fluoride analytical grade, G 418 (Geneticin) and Accutase.
# Buffer 1 (washing and testing buffer) contained PBS, 1 mM CaCl2, 1 mM MgCl2, 0.2% glucose; 0.1% BSA, 1 mM IBMX. Buffer 2 (2× lysis buffer) contained 1% Triton X-100 in PBS (without CaCl2 and MgCl2). Buffer 3 (assay buffer) contained 50 mM potassium phosphate buffer (pH 7.0); 800 mM potassium fluoride; 0.2% BSA (always added fresh).
# On day 1, the cells were seeded in 96-well plates (3×10^4 cells per well hFSHR clone 16 cells (CHO cells stably transfected with the human FSH receptor in 150 μl of medium). The next day, test substance dilutions were made up. For this purpose, all the substances were diluted in ice-cold buffer 1 (with or without hFSH), and the substance dilutions were placed on ice until applied to the cells.
# The cell supernatant was then aspirated off, and the cells were washed 2× with 200 μl of buffer 1. The cells were treated with 60 μl of the appropriate substance concentrations at 37° C. for 2 h. The cells were then lysed with 60 μl of buffer 2 (put onto the supernatant) (on a plate shaker at RT for 30 min).
# The test conjugates (XL-665 and anti-cAMP cryptate) were diluted in buffer 3 in accordance with the manufacturers' information. The actual mixture for measurement was pipetted into a black 96-well plate (in each case 15 μl of the cell lysate diluted with 35 μl of buffer 1; firstly 25 μl of XL-665 conjugate were pipetted and, after 10 min, 25 μl of the anti-cAMP cryptate were added). This is followed by incubation at RT for 90 minutes. The measurement was carried out in a PheraStar (BMG).
# Dose-effect curve (hFSH) for the human receptor: 1e-8, 3e-9, 1e-9, 3e-10, 1e-10, 3e-11, 1e-11, 3e-12 mol/l.
# The test substances were employed in suitable dilutions in the absence (test for agonism) and in the presence of 1e-9 mol/l hFSH.
# The values of the well ratio were averaged and then entered directly in SigmaPlot versus the concentrations. The maximum and minimum values were determined for each plate, and half the difference is to be regarded as IC50.
row,IC50,Compound
1,350 nM,"CC(C)Oc1ccc(-c2cc3ccccc3o2)cc1C(=O)NC1(CO)CCc2[nH]c3ccc(F)cc3c2C1 (stereo not drawn) [Example 42, 5-Benzofuran-2-yl-N-(6-fluoro-3-hydroxymethyl-2,3,4,9-tetrahydro-1H-carbazol-3-yl)-2-isopropoxy-benzamide]"
2,600 nM,"CC(C)Oc1ccc(-c2cc3ccccc3o2)cc1C(=O)NC1(CO)CCc2[nH]c3ccccc3c2C1 (stereo not drawn) [Example 38, 5-Benzofuran-2-yl-N-(3-hydroxymethyl-2,3,4,9-tetrahydro-1H-carbazol-3-yl)-2-isopropoxy-benzamide]"
3,2000 nM,"COc1ccc2nc(-c3ccccc3)cc(C(=O)NC3(CO)CCc4[nH]c5ccccc5c4C3)c2c1 (stereo not drawn) [Example 4, 6-Methoxy-2-phenyl-quinoline-4-carboxylic acid (3-hydroxymethyl-2,3,4,9-tetrahydro-1H-carbazol-3-yl)-amide]"
4,2500 nM,"Cc1cccc2c3c([nH]c12)CCC(CO)(NC(=O)c1cc(-c2cc4ccccc4o2)ccc1OC(C)C)C3 (stereo not drawn) [Example 46, 5-Benzofuran-2-yl-N-(3-hydroxymethyl-8-methyl-2,3,4,9-tetrahydro-1H-carbazol-3-yl)-2-isopropoxy-benzamide]"

row,Compound,IC50
1,"COc1ccc(-c2ccc(OC(C)C)c(C(=O)NC3(CO)CCc4[nH]c5ccc(F)cc5c4C3)c2)cc1OC (stereo not drawn) [Example 18, 4-Isopropoxy-3′,4′-dimethoxy-biphenyl-3-carboxylic acid (6-fluoro-3-hydroxymethyl-2,3,4,9-tetrahydro-1H-carbazol-3-yl)-amide]",200 nM
2,"CC(C)Oc1ccc(-c2cc3ccccc3o2)cc1C(=O)NC1(CO)CCc2[nH]c3ccc(C(=O)O)cc3c2C1 (stereo not drawn) [Example 39, 6-(5-Benzofuran-2-yl-2-isopropoxy-benzoylamino)-6-hydroxymethyl-6,7,8,9-tetrahydro-5H-carbazole-3-carboxylic acid]",6000 nM
